PMC5908160, “Inhibition of sperm motility in male macaques with EP055, a potential non-hormonal male contraceptive” (PLoS ONE, 2018)

Assays:
[1] = EP054/EP055 plasma half-life in cynomolgus male macaques; design: species or system Macaca fascicularis; conditions: cynomolgus monkey, in vivo, iv, 1 mg/kg, summary of both studies
Procedure: Half-life measurements for EP054/EP055 were done by Sinclair Research Center, LLC (SRC) (Study No. S14109, Auxvasse, MO). This study was reviewed and approved by the Sinclair IUCAC committee and complied with all applicable sections of USDA Policy 12 and the Final Rules of the Animal Welfare Act regulation (9 CFR). This study used 3 naïve cynomolgus (Macaca fascicularis) males (3-4 yrs old, 4 kg or less). Doses of EP054 in 3% DMSO-PBS, pH 7.6 were infused by i.v. at 1.0 mg/kg. The infusion rate was 4 ml/min. Plasma samples were collected at 0, 5, 15, 30 min and 1, 4, 8 and 24 hours, and immediately frozen on dry ice. Samples were stored at -80 °C until processing.
Sample preparation and LC-MS/MS analysis were done by OpAns LLC (Durham, NC). Plasma samples (both rat and macaque) were thawed at room temperature and processed by adding 160 µL of methanol (including 10 µL internal standard) to 25 µL of the sample. Samples were vortexed for 5 minutes, centrifuged at 2684 x g for 5 minutes. 50 µL of supernatant was removed for analysis by HPLC-MS/MS.
Therefore, samples were analyzed for the presence of EP055.

[2] = EP055 testis, epididymis and plasma levels in cynomolgus males after i.v. infusion; assay type: in vivo, Macaca fascicularis; conditions: 63.25 mg/kg i.v.
Description: Evaluation of the effects of an i.v. infusion of EP055 on male cynomolgus macaque reproductive system was done by Sinclair Research Center, LLC. (Study No: S14574). This study was reviewed and approved by the Sinclair IUCAC committee and complied with all applicable sections of USDA Policy 12 and the Final Rules of the Animal Welfare Act regulation (9 CFR). This study used 6 naïve cynomolgus males (3-4 yrs old, 4 kg or less). Doses of EP055 in 5% DMSO-PBS, pH 7.6 or vehicle control were infused by i.v. at 63.25 mg/kg. The infusion rate was 4 ml/min. Plasma and tissues (epididymis and testis) were collected at 2 hr or 6 hr and immediately frozen on dry ice. Samples were stored at -80 °C until processing. Half-life was approximated using the 2 hr and 6 hr points and an estimation of the initial plasma level using the initial dose of […], the circulating blood volume of 65 ml/kg, average hematocrit of 41.7 (S2 Table) and average animal size (3.72 kg for n=4).
Semen or tissue samples were thawed at room temperature. PBS at pH 7.6 was added to each sample at a ratio of 2:1 and sonicated in an ice chilled bath for 5 minutes before homogenization using a Polytron unit (Kinematica AG, Lucerne, Switzerland). An aliquot (25 uL) of each sample homogenate was processed as described for plasma samples.

human sperm = test: CASA (Computer Assisted Sperm Analysis) assay of human sperm motility; assay type: cell-based; conditions: n = 4 donors, read-out: average relative motility index (RMI) IC50
Procedure: Human semen samples were obtained from the Department of Obstetrics and Gynecology, University of North Carolina Memorial Hospital, Chapel Hill, NC. […] Semen samples were allowed to liquefy for 30 minutes and subjected to standard semen analysis to determine acceptability before freezing. All samples were stored in liquid nitrogen, and de-identified by the Department of Obstetrics and Gynecology, University of North Carolina Memorial Hospital, Chapel Hill, NC before further processing. A density gradient (Isolate catalog number 99264, Irving Scientific, Irving CA, or SpermCare catalog number 2221 and 2222, InvitroCare Inc., Frederick MD) was used to prepare spermatozoa for further analysis. At least 3 independent experiments were done per assay, each using a single donor.
Computer Assisted Sperm Analysis (CASA) was conducted as previously described. Briefly sperm were washed after the density gradient with EP buffer-0.4% BSA and resuspended in modified M16 for compound treatments. Sperm were diluted to 5 x 10^6/mL in 12x75 mm glass tubes with the appropriate treatment and incubated at 37°C in 5% CO2. […] The relative mobility index (RMI) is a measure of the effect of compound on sperm and is calculated as the VSL x %normal motility and normalized to the appropriate DMSO control.

In the case of COC(=O)NNc1nc(Nc2ccc(NC(C)=O)c(O)c2)nc(SCC(=O)O)n1 [EP055], the half-life [1] is reported as 10 to 12 min, the “epididymis versus testis level (ug/mg of tissue)” value ([2]; 2 and 6 hours) is reported as “significantly (p < 0.05) more EP055 (ug/mg of tissue) in the epididymis after 2 hours but not after 6 hours” and the “total amounts in testis versus epididymis” value ([2]; 2 and 6 hours) is reported as “not significantly different at 2 and 6 hours”. For the same molecule, the “presence in testis and epididymis” value ([2]; 2 and 6 hours post-infusion) was “detected in testis and epididymis two hours and six hours post-infusion”, the half-life ([2]; cynomolgus monkey, iv, extrapolated from 2 hr and 6 hr points and calculated initial plasma concentration, read-out: estimated plasma half-life (t1/2) in target tissue experiment) was 11.9 min and the IC50 (human sperm) was 200 µM.
